Our source for the IC50 values is patent US9884868B2, “TGF-beta inhibitors” (Rigel Pharmaceuticals, Inc., priority 2015, dated 2018).

The structures appear in SMILES notation.

What is called IC50 is the concentration that gives 50% inhibition.

For one test, the target named is HIS-TGF-βR1 T204D (Homo sapiens (Human), UniProt P36897, T204D). The test can be described thus: HTRF probe displacement assay with HIS-TGF-βR1 T204D.
Sequence of HIS-TGF-βR1 T204D (P36897 34-503 T204D): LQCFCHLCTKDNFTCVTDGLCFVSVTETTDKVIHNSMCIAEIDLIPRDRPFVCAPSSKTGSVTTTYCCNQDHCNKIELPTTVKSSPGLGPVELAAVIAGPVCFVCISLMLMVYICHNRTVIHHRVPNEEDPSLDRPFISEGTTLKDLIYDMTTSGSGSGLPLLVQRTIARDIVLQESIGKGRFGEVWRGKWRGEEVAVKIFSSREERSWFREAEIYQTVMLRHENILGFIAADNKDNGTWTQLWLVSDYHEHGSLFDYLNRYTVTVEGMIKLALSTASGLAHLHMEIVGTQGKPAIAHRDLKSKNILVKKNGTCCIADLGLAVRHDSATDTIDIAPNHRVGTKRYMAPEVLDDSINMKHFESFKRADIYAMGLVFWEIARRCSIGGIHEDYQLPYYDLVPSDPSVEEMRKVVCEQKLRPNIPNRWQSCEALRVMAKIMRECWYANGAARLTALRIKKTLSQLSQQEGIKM
Details: not given
Consider `N#Cc1cnc2ccc(-c3c(-c4ccc(F)cc4F)ncn3CC(F)F)cn12` [227′, 6-(1-(2,2-difluoroethyl)-4-(2,4-difluorophenyl)-1H-imidazol-5-yl)imidazo[1,2-a]pyridine-3-carbonitrile], for which the IC50 was 8.1 nM.

Staying with this test, now noted: read-out: TGFbr1 IC50; HTRF probe displacement, 1 nM HIS-TGF-βR1 T204D, 1 hour at room temperature.
`N#Cc1cnc2ccc(-c3c(-c4ccc(F)cc4)ncn3C34CC(C3)C4)nn12` [25′, 6-(1-(bicyclo[1.1.1]pentan-1-yl)-4-(4-fluorophenyl)-1H-imidazol-5-yl)imidazo[1,2-b]pyridazine-3-carbonitrile]: the concentration for half-maximal inhibition (IC50) worked out at 2.6 nM.

On to `NC(=O)c1cnc2ccc(-c3c(-c4ccc(F)cc4)nc4n3CCC4)cn12` [Example 283′, 6-(2-(4-fluorophenyl)-6,7-dihydro-5H-pyrrolo[1,2-a]imidazol-3-yl)imidazo[1,2-a]pyridine-3-carboxamide], for which the half-maximal inhibitory concentration (IC50) was 0.9 nM. As for `NC(=O)c1cnc2ccc(-c3c(-c4ccc(F)cc4)ncn3C(CO)CO)nn12` [129′, 6-(1-(1,3-dihydroxypropan-2-yl)-4-(4-fluorophenyl)-1H-imidazol-5-yl)imidazo[1,2-b]pyridazine-3-carboxamide], the IC50 came to 5.1 nM. Take `OCCc1cnc2ccc(-c3c(-c4ccc(F)cc4)ncn3CC(F)F)nn12` [Example 217′, 2-(6-(1-(2,2-difluoroethyl)-4-(4-fluorophenyl)-1H-imidazol-5-yl)imidazo[1,2-b]pyridazin-3-yl)ethanol]: the IC50 is 3.2 nM. For `Fc1ccc(-c2ncn(CCC(F)(F)F)c2-c2ccc3nccn3c2)cc1Cl` [182′, 6-(4-(3-chloro-4-fluorophenyl)-1-(3,3,3-trifluoropropyl)-1H-imidazol-5-yl)imidazo[1,2-a]pyridine], the IC50 came out at 50.8 nM. Consider `N#Cc1cnc2ccc(-c3c(-c4ccc(F)cc4)ncn3CCF)nn12` [9′, 6-(1-(2-fluoroethyl)-4-(4-fluorophenyl)-1H-imidazol-5-yl)imidazo[1,2-b]pyridazine-3-carbonitrile], for which the IC50 was 1.9 nM. On the same count and under the same terms, in the case of `N#Cc1cnc2ccc(-c3c(-c4ccc(F)cc4)ncn3C3COC3)cn12` [78′, 6-(4-(4-fluorophenyl)-1-(oxetan-3-yl)-1H-imidazol-5-yl)imidazo[1,2-a]pyridine-3-carbonitrile] it was 568 nM; in that of `Fc1ccc(-c2ncn(CC(F)F)c2-c2ccc3ncc(C(F)F)n3n2)cc1` [Example 215′, 6-(1-(2,2-difluoroethyl)-4-(4-fluorophenyl)-1H-imidazol-5-yl)-3-(difluoromethyl)imidazo[1,2-b]pyridazine], 0.8 nM.

As for `N#Cc1cnc2ccc(-c3c(-c4ccc(F)cc4)nc(N)n3CC(F)F)cn12` [Example 298′, 6-(2-amino-1-(2,2-difluoroethyl)-4-(4-fluorophenyl)-1H-imidazol-5-yl)imidazo[1,2-a]pyridine-3-carbonitrile], the IC50 worked out at 44.8 nM. As to `NC(=O)c1cnc2ccc(-c3c(-c4ccc(F)cc4)ncn3CC3CCC3)cn12` [157′, 6-(1-(cyclobutylmethyl)-4-(4-fluorophenyl)-1H-imidazol-5-yl)imidazo[1,2-a]pyridine-3-carboxamide], the IC50 was determined as 0.8 nM. Consider `N#Cc1cnc2ccc(-c3c(-c4ccc(F)c(Cl)c4)ncn3CCCCl)nn12` [44′, 6-(4-(3-chloro-4-fluorophenyl)-1-(3-chloropropyl)-1H-imidazol-5-yl)imidazo[1,2-b]pyridazine-3-carbonitrile], for which the IC50 was determined as 1.2 nM. In the case of `Fc1ccc(-c2ncn([C@H]3CCC(F)(F)C3)c2-c2ccc3nccn3c2)cc1Cl` [186′, (S)-6-(4-(3-chloro-4-fluorophenyl)-1-(3,3-difluorocyclopentyl)-1H-imidazol-5-yl)imidazo[1,2-a]pyridine], the IC50 turned out to be 228 nM. As for `NNC(=O)c1cnc2ccc(-c3c(-c4ccc(F)cc4)ncn3CC(F)F)nn12` [Example 205′, 6-(1-(2,2-difluoroethyl)-4-(4-fluorophenyl)-1H-imidazol-5-yl)imidazo[1,2-b]pyridazine-3-carbohydrazide], the IC50 was determined as 1.8 nM.

`CC(CO)n1cnc(-c2ccc(F)cc2)c1-c1ccc2ncc(C(N)=O)n2c1` (centres unmarked) [152′, 6-(4-(4-fluorophenyl)-1-(1-hydroxypropan-2-yl)-1H-imidazol-5-yl)imidazo[1,2-a]pyridine-3-carboxamide]: the half-inhibitory concentration (IC50) came to 1.1 nM. Regarding `Fc1ccc(-c2ncn(CC(F)F)c2-c2ccc3ncc(C(F)F)n3c2)cc1` [Example 277′, 6-(1-(2,2-difluoroethyl)-4-(4-fluorophenyl)-1H-imidazol-5-yl)-3-(difluoromethyl)imidazo [1,2-a]pyridine], the IC50 came out at 20.9 nM. Turning to `CC(CO)n1cnc(-c2ccc(F)cc2)c1-c1ccc2ncc(C#N)n2c1` (centres unmarked) [81′, 6-(4-(4-fluorophenyl)-1-(1-hydroxypropan-2-yl)-1H-imidazol-5-yl)imidazo[1,2-a]pyridine-3-carbonitrile], the IC50 worked out at 88.5 nM. With `CC(C)CCn1cnc(-c2ccc(F)c(Cl)c2)c1-c1ccc2ncc(C#N)n2n1` [49′, 6-(4-(3-chloro-4-fluorophenyl)-1-isopentyl-1H-imidazol-5-yl)imidazo[1,2-b]pyridazine-3-carbonitrile], the 50% inhibitory concentration (IC50) was determined as 1.4 nM. With `CCC(CO)n1cnc(-c2ccc(F)cc2)c1-c1ccc2ncc(C#N)n2c1` (centres unmarked) [83′, 6-(4-(4-fluorophenyl)-1-(1-hydroxybutan-2-yl)-1H-imidazol-5-yl)imidazo[1,2-a]pyridine-3-carbonitrile], the IC50 was found to be 189 nM. The same measure, in the same setting: in the case of `C[C@H](O)Cn1cnc(-c2ccc(F)cc2)c1-c1ccc2ncc(C(N)=O)n2c1` [158′, (S)-6-(4-(4-fluorophenyl)-1-(2-hydroxypropyl)-1H-imidazol-5-yl)imidazo[1,2-a]pyridine-3-carboxamide] it was 2.7 nM. For `N#Cc1cnc2ccc(-c3c(-c4ccc(F)cc4)nc4n3CCC4)cn12` [283B′, 6-(2-(4-fluorophenyl)-6,7-dihydro-5H-pyrrolo[1,2-a]imidazol-3-yl)imidazo[1,2-a]pyridine-3-carbonitrile], the half-maximal inhibitory concentration (IC50) came to 13.8 nM.

Consider `NC(=O)c1cnc2ccc(-c3c(-c4ccc(F)c(Cl)c4)ncn3CCCO)nn12` [142′, 6-(4-(3-chloro-4-fluorophenyl)-1-(3-hydroxypropyl)-1H-imidazol-5-yl)imidazo[1,2-b]pyridazine-3-carboxamide], for which the IC50 was determined as 1.6 nM.

In the case of `CC(F)(F)Cn1cnc(-c2ccc(F)c(Cl)c2)c1-c1ccc2ncc(C(N)=O)n2n1` [151′, 6-(4-(3-chloro-4-fluorophenyl)-1-(2,2-difluoropropyl)-1H-imidazol-5-yl)imidazo[1,2-b]pyridazine-3-carboxamide], the IC50 came out at 0.6 nM. Same read-out and setting: the value for `N#Cc1cnc2ccc(-c3c(-c4ccc(F)cc4)ncn3CCCF)cn12` [84′, 6-(4-(4-fluorophenyl)-1-(3-fluoropropyl)-1H-imidazol-5-yl)imidazo[1,2-a]pyridine-3-carbonitrile] was 121 nM; that for `CC[C@@H](CF)n1cnc(-c2ccc(F)cc2)c1-c1ccc2ncc(C#N)n2n1` [Example 103′, (S)-6-(1-(1-fluorobutan-2-yl)-4-(4-fluorophenyl)-1H-imidazol-5-yl)imidazo[1,2-b]pyridazine-3-carbonitrile] was 1.8 nM. For `Fc1ccc(-c2ncn(C3(C(F)F)CC3)c2-c2ccc3nccn3n2)cc1` [Example 189′, 6-(1-(1-(difluoromethyl)cyclopropyl)-4-(4-fluorophenyl)-1H-imidazol-5-yl)imidazo[1,2-b]pyridazine], the IC50 was 1.6 nM.
